Reference: US9363995B2, “Use of derivative compounds of 1,3-benzodioxole in insecticidal compositions” (ENDURA S.P.A., priority 2012, dated 2016)
Where two headings read alike, the source gives them in different places.

Assays:
[1] = tested on: adult, female insects of the Musca domestica species; assay: whole plant or invertebrate; assay type: in vivo; details: for Mortality: compound 1.25% w/v + tetramethrin 0.25% w/v in acetone; for synergist activity in respect of the tetramethrin: summary of Table 1, comparison with PBO
Protocol: After having mixed the products of Examples 1-4 with tetramethrin in acetone respectively at a concentration of 1.25% for the products of examples 1-4 and of 0.25% for the tetramethrin, 0.5 μl of acetone solution was applied to adult, female insects of the Musca domestica species, on the rear part of the pectoral region. The insect was then transferred to a closed plastic container approximately 12 cm in diameter and 6 cm in height and left at 25° C. with supply of 5% sugar solution. After 24 hours the alive and dead flies were examined to determine the percentage mortality. The total number of flies per container was equal to 20 and the test was repeated three times. For comparison acetone solutions at the same concentrations as previously indicated for the compounds of examples 1-4 and for tetramethrin alone were prepared.
For comparison an acetone solution at an equal concentration of piperonyl butoxide and tetramethrin and an acetone solution at the same concentration of piperonyl butoxide alone were also prepared.

Blattella germanica = assay: Mortality test on beetles, treated glass plates with chloropyriphos or propoxur; assay type: in vivo; details: 24 hours exposure; for Mortalità 1gg: 1 day from application; for Mortalità 3gg: 3 days from application
Protocol: Solutions of products of examples 1 and 3 in acetone and, for comparison, of piperonyl butoxide, with the organic phosphorus compound chloropyriphos and with carbamate compound propoxur, were applied from a distance of 12 cm on glass plates (model Ostra, 15×15 cm=225 square cm) by means of a suitable glass sprayer so as to obtain an applied amount of organic phosphorous compound equal to 33 mg/square m and of carbamate equal to 500 mg/mq. The products of examples 1 e 3 and the comparison compound PBO were in a weight ratio of 5:1 w/w with respect to the organic phosphorous compound and to the carbamate.
In the same way acetone solutions of organic phosphorous compound and of carbamate compound were prepared so as to obtain an applied amount of organic phosphorous compound equal to 33 mg/square m and of carbamate compound equal to 500 mg/mq. After the application the plates were transferred to a closed test room under controlled temperature and humidity (24-25° C., RH 50-60%). Glass rings (h 5.5 cm×diameter 9.5 cm), having internal surface treated with talc and each one containing 5 beetles—Blattella germanica—were placed in the centre of the plates. They were evaluated each one after 1 day and three days from the application. For each day, the insects were maintained on the surface for 24 hours.

[2] = Musca domestica, compound alone 1.25% w/v in acetone, tetramethrin 0, 0.5 μl topical, after 24 hours, read-out: Mortality
[3] = product 165 mg/sm + chloropyriphos 33 mg/sm
[4] = product 2500 mg/sm + propoxur 500 mg/sm

| SMILES | mortality at 1.25 % strength [1, 2] [%] | Mortality ([1]; 0.5 μl topical, after 24 hours) [%] | Mortalità 1gg (Blattella germanica; [3]) [%] | Mortalità 3gg (Blattella germanica; [3]) [%] | Mortalità 1gg (Blattella germanica; [4]) [%] | Mortalità 3gg (Blattella germanica; [4]) [%] | further results |
| --- | --- | --- | --- | --- | --- | --- | --- |
| CCCCCCCCCCc1cc2c(cc1COCCOCCOCCCC)OCO2 [Ex. 4, 5-[2-(2-Butoxyethoxy)-ethoxymethyl]-6-n-decyl-1,3-benzodioxole] | 0 | 80 |  |  |  |  |  |
| CCOP(=S)(OCC)Oc1nc(Cl)c(Cl)cc1Cl [Chloropyriphos, chloropyriphos, reference compound] |  |  |  |  |  |  | Mortalità 1gg (Blattella germanica; chloropyriphos alone 33 mg/sm): 32%; Mortalità 3gg (Blattella germanica; chloropyriphos alone 33 mg/sm): 48% |
| CC(C)=CC1C(C(=O)OCN2C(=O)C3=C(CCCC3)C2=O)C1(C)C (stereo not shown) [tetramethrin, reference compound] |  |  |  |  |  |  | mortality at 0.25 % strength ([1]; Musca domestica, topical, 24 h): 20% |
| CCCCCCc1cc2c(cc1COCCOCCOCCCC)OCO2 [Ex. 3, 5-[2-(2-Butoxy-ethoxy)-ethoxymethyl]-6-n-hexyl-1,3-benzodioxole] | 0 | 100 | 60 | 80 | 44 | 56 | synergist activity in respect of the tetramethrin [1]: most active as synergists |
| CCCCOCCOCCOCc1cc2c(cc1CCC)OCO2 [PBO, 5-[2-(2-butoxyethoxy)-ethoxymethyl]6-propyl-1,3-benzodioxole, reference compound] |  |  | 45 | 65 | 35 | 42 | mortality at 1.25 % strength ([1]; Musca domestica, topical, 24 h): 0% |
| CNC(=O)Oc1ccccc1OC(C)C [Propoxur, propoxur, reference compound] |  |  |  |  |  |  | Mortalità 1gg (Blattella germanica; propoxur alone 500 mg/sm): 20%; Mortalità 3gg (Blattella germanica; propoxur alone 500 mg/sm): 31% |
| CCCCOCCOCCOCc1cc2c(cc1CCCC)OCO2 [Ex. 2, 5-[2-(2-butoxyethoxy)-ethoxymethyl]-6-n-butyl-1,3-benzodioxole] | 0 | 80 |  |  |  |  |  |
| CCCCCCCCc1cc2c(cc1COCCOCCOCCCC)OCO2 [Ex. 1, 5-[2-(2-butoxyethoxy)-ethoxymethyl]-6-n-octyl-1,3-benzodioxole] | 0 | 100 | 62 | 85 | 48 | 60 | synergist activity in respect of the tetramethrin [1]: most active as synergists |
